Columns and labels:
corn [1] = assay: Test A preemergence; format: in vivo, Zea mays; conditions: for Plant response rating, Corn: 125 g ai/ha
Method in brief: (§1)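 Visual 0–100 rating (100 = complete control) taken about 10 d post-treatment relative to untreated checks. Preemergence: directed soil spray on sown loam/sand pots. Postemergence: seedlings 2–10 cm, 1–2 leaf. Non-phytotoxic solvent formulation with surfactant.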

barnyardgrass [2] = assay: Test A postemergence; format: in vivo, Echinochloa crus-galli
Method in brief: as §1

corn [3] = assay: Test A postemergence; format: in vivo, Zea mays
Method in brief: as §1

wheat, winter = assay: Test C postemergence; format: in vivo, Triticum aestivum; conditions: for Plant response rating, Wheat / Wheat plant response rating: scale 0 to 100 (0 no effect, 100 complete control)
Method in brief: (§2)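 Injury was assessed visually against controls 13 to 15 days after application, with 0 meaning no effect and 100 full control; missing entries are shown as a dash. Preemergence sprays hit seeded loam–sand soil, postemergence sprays hit 1- to 4-leaf plants.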

galium = assay: Test C postemergence; format: in vivo, Galium aparine; conditions: for Galium plant response rating / Plant response rating, Galium: scale 0 to 100 (0 no effect, 100 complete control)
Method in brief: as §2

yellow nutsedge = assay: Test C postemergence; format: in vivo, Cyperus esculentus; conditions: for Plant response rating, Nutsedge, Yellow / Nutsedge, Yellow plant response rating: scale 0 to 100 (0 no effect, 100 complete control)
Method in brief: as §2

ragweed = assay: Test C postemergence; format: in vivo, Ambrosia elatior; conditions: for Plant response rating, Ragweed / Ragweed plant response rating: scale 0 to 100 (0 no effect, 100 complete control)
Method in brief: as §2

barnyardgrass [4] = assay: Test C postemergence; format: in vivo, Echinochloa crus-galli; conditions: for Barnyardgrass plant response rating / Plant response rating, Barnyardgrass: scale 0 to 100 (0 no effect, 100 complete control)
Method in brief: as §2

waterhemp = assay: Test C postemergence; format: in vivo, Amaranthus rudis; conditions: for Plant response rating, Waterhemp / Waterhemp plant response rating: scale 0 to 100 (0 no effect, 100 complete control)
Method in brief: as §2

wild oat = assay: Test C postemergence; format: in vivo, Avena fatua; conditions: for Plant response rating, Oat, Wild / Oat, Wild plant response rating: scale 0 to 100 (0 no effect, 100 complete control)
Method in brief: as §2

[5] = 0 to 100 scale where 0 is no effect and 100 is complete control
[6] = 125 g ai/ha, 0 to 100 scale where 0 is no effect and 100 is complete control
[7] = 500 g ai/ha, 0 to 100 scale where 0 is no effect and 100 is complete control
[8] = Postemergence, 31 g ai/ha, 13 to 15 days
[9] = 16 g ai/ha, postemergence, visual rating, 13 to 15 days
[10] = 1000 g ai/ha, 0 to 100 scale, 0 no effect, 100 complete control
[11] = 16 g ai/ha, postemergence, 0 is no effect, 100 is complete control
[12] = 31 g ai/ha, postemergence, visual rating, 13 to 15 days
[13] = 125 g ai/ha, postemergence, visual rating
[14] = Postemergence, 62 g ai/ha, 13 to 15 days
[15] = 8 g ai/ha, postemergence, 0 is no effect, 100 is complete control

## FC(F)Oc1cnn(-c2ccccc2Oc2ncc(Cl)cn2)c1 [Compound 98]
Corn [1]; [5]
  Plant response rating, Corn: 0
Corn [1]; 500 g ai/ha, 0 to 100 scale, 0 no effect, 100 complete control, approx. 10 days
  Corn plant response rating: 10
Barnyardgrass [2]; [6]
  Plant response rating, Barnyardgrass: 80
Barnyardgrass [2]; [7]
  Plant response rating, Barnyardgrass: 90
Corn [3]; [6]
  Plant response rating, Corn: 40
Corn [3]; [7]
  Plant response rating, Corn: 70
wheat, winter; 125 g ai/ha, postemergence
  Plant response rating (0 to 100), Wheat: 10
wheat, winter; [8]
  Plant response rating, Wheat: 0
wheat, winter; Postemergence, 62 g ai/ha
  Plant response rating, Wheat: 5
galium; [9]
  Galium plant response rating: 50
galium; 125 g ai/ha, postemergence
  Plant response rating (0 to 100), Galium: 80
galium; [8]
  Plant response rating, Galium: 60
galium; Postemergence, 62 g ai/ha
  Plant response rating, Galium: 75
Yellow nutsedge; 125 g ai/ha, postemergence
  Plant response rating (0 to 100), Nutsedge, Yellow: 5
Yellow nutsedge; [8]
  Plant response rating, Nutsedge, Yellow: 10
Yellow nutsedge; Postemergence, 62 g ai/ha
  Plant response rating, Nutsedge, Yellow: 5
ragweed; 125 g ai/ha, postemergence
  Plant response rating (0 to 100), Ragweed: 40
ragweed; [8]
  Plant response rating, Ragweed: 10
ragweed; Postemergence, 62 g ai/ha
  Plant response rating, Ragweed: 30
Barnyardgrass [4]; [9]
  Barnyardgrass plant response rating: 5
Barnyardgrass [4]; 125 g ai/ha, postemergence
  Plant response rating (0 to 100), Barnyardgrass: 15
Barnyardgrass [4]; [8]
  Plant response rating, Barnyardgrass: 5
Barnyardgrass [4]; Postemergence, 62 g ai/ha
  Plant response rating, Barnyardgrass: 10
waterhemp; 125 g ai/ha, postemergence
  Plant response rating (0 to 100), Waterhemp: 85
waterhemp; [8]
  Plant response rating, Waterhemp: 50
waterhemp; Postemergence, 62 g ai/ha
  Plant response rating, Waterhemp: 80
Wild oat; 125 g ai/ha, postemergence
  Plant response rating (0 to 100), Oat, Wild: 20
Wild oat; [8]
  Plant response rating, Oat, Wild: 5
Wild oat; Postemergence, 62 g ai/ha
  Plant response rating, Oat, Wild: 10

## Clc1cnc(Oc2ccccc2-n2cc(Br)nn2)nc1 [Compound 223]
Corn [1]; 1000 g ai/ha, 0 to 100 scale, 0 no effect, 100 complete control, approx. 10 days
  Corn plant response rating: 80
Barnyardgrass [2]; [10]
  Plant response rating, Barnyardgrass: 100
Corn [3]; [10]
  Plant response rating, Corn: 60
wheat, winter; [11]
  Plant response rating (0 to 100), Wheat: 0
wheat, winter; [12]
  Wheat plant response rating: 0
wheat, winter; [13]
  Plant response rating, Wheat: 5
wheat, winter; [14]
  Plant response rating, Wheat: 0
galium; [11]
  Plant response rating (0 to 100), Galium: 75
galium; [12]
  Galium plant response rating: 80
galium; [13]
  Plant response rating, Galium: 100
galium; [14]
  Plant response rating, Galium: 80
Yellow nutsedge; [11]
  Plant response rating (0 to 100), Nutsedge, Yellow: 5
Yellow nutsedge; [12]
  Nutsedge, Yellow plant response rating: 5
Yellow nutsedge; [13]
  Plant response rating, Nutsedge, Yellow: 5
Yellow nutsedge; [14]
  Plant response rating, Nutsedge, Yellow: 5
ragweed; [11]
  Plant response rating (0 to 100), Ragweed: 10
ragweed; [12]
  Ragweed plant response rating: 20
ragweed; [13]
  Plant response rating, Ragweed: 75
ragweed; [14]
  Plant response rating, Ragweed: 55
Barnyardgrass [4]; [11]
  Plant response rating (0 to 100), Barnyardgrass: 0
Barnyardgrass [4]; [12]
  Barnyardgrass plant response rating: 0
Barnyardgrass [4]; [13]
  Plant response rating, Barnyardgrass: 5
Barnyardgrass [4]; Postemergence, 62 g ai/ha
  Plant response rating, Barnyardgrass: 5
waterhemp; [11]
  Plant response rating (0 to 100), Waterhemp: 70
waterhemp; [12]
  Waterhemp plant response rating: 60
waterhemp; [13]
  Plant response rating, Waterhemp: 95
waterhemp; [14]
  Plant response rating, Waterhemp: 85
Wild oat; [11]
  Plant response rating (0 to 100), Oat, Wild: 0
Wild oat; [12]
  Oat, Wild plant response rating: 0
Wild oat; [13]
  Plant response rating, Oat, Wild: 5
Wild oat; [14]
  Plant response rating, Oat, Wild: 0

## O=Cc1cccc(Oc2ncc(I)cn2)c1-n1cc(Br)cn1 [Compound 172]
Corn [1]; [5]
  Plant response rating, Corn: 0
Corn [1]; [7]
  Corn plant response rating: 0
Barnyardgrass [2]; [6]
  Barnyardgrass plant response rating: 30
Barnyardgrass [2]; [7]
  Plant response rating, Barnyardgrass: 60
Corn [3]; [6]
  Corn plant response rating: 0
Corn [3]; [7]
  Plant response rating, Corn: 20
wheat, winter; [15]
  Plant response rating (0 to 100), Wheat: 0
wheat, winter; [11]
  Plant response rating (0 to 100), Wheat: 0
wheat, winter; [12]
  Wheat plant response rating: 0
wheat, winter; Postemergence, 62 g ai/ha
  Plant response rating, Wheat: 0
galium; [15]
  Plant response rating (0 to 100), Galium: 0
galium; [11]
  Plant response rating (0 to 100), Galium: 0
galium; [12]
  Galium plant response rating: 0
galium; Postemergence, 62 g ai/ha
  Plant response rating, Galium: 10
Yellow nutsedge; [15]
  Plant response rating (0 to 100), Nutsedge, Yellow: 0
Yellow nutsedge; [11]
  Plant response rating (0 to 100), Nutsedge, Yellow: 0
Yellow nutsedge; [12]
  Nutsedge, Yellow plant response rating: 5
Yellow nutsedge; Postemergence, 62 g ai/ha
  Plant response rating, Nutsedge, Yellow: 5
ragweed; [15]
  Plant response rating (0 to 100), Ragweed: 0
ragweed; [11]
  Plant response rating (0 to 100), Ragweed: 0
ragweed; [12]
  Ragweed plant response rating: 0
ragweed; Postemergence, 62 g ai/ha
  Plant response rating, Ragweed: 0
Barnyardgrass [4]; [15]
  Plant response rating (0 to 100), Barnyardgrass: 0
Barnyardgrass [4]; [11]
  Plant response rating (0 to 100), Barnyardgrass: 5
Barnyardgrass [4]; [12]
  Barnyardgrass plant response rating: 5
Barnyardgrass [4]; Postemergence, 62 g ai/ha
  Plant response rating, Barnyardgrass: 5
waterhemp; [15]
  Plant response rating (0 to 100), Waterhemp: 0
waterhemp; [11]
  Plant response rating (0 to 100), Waterhemp: 5
waterhemp; [12]
  Waterhemp plant response rating: 5
waterhemp; Postemergence, 62 g ai/ha
  Plant response rating, Waterhemp: 5
Wild oat; [15]
  Plant response rating (0 to 100), Oat, Wild: 0
Wild oat; [11]
  Plant response rating (0 to 100), Oat, Wild: 0
Wild oat; [12]
  Oat, Wild plant response rating: 0
Wild oat; Postemergence, 62 g ai/ha
  Plant response rating, Oat, Wild: 0

Reference: patent US9695155B2, “Herbicidal substituted pyrimidinyloxy benzene compounds” (E. I. DU PONT DE NEMOURS AND COMPANY, priority 2013, dated 2017)
